Laboratory results published in patent US7858322B2, “Method of determining inhibition of binding to TRPM7 protein” (NoNo, Inc., priority 2003, dated 2010).

Experiments:
[1] = tested on: cultured cortical neurons; experiment: Oxygen glucose deprivation (OGD) neuronal cell death; type: cell-based; settings: FIG. 7
Protocol: The fraction of dead cells was determining by dividing the number of neurons expressing GFP which became stained with propidium iodide 20 h after OGD by the number of neurons expressing GFP at the beginning of the experiment. Data for each culture was obtained from counting cells in 3 high power microscope fields per experiment.

cultured neurons = experiment: Neuronal survival 20 h after 1 h NMDA challenge; type: cell-based; settings: peptide applied immediately after the NMDA challenge; FIG. 14
Protocol: The sequence of Tat-9cTRPM7 is: [[…] or [[…]-[…]] (SEQ ID NO:258), whereby the first 11 residues correspond to the cell membrane transduction domain of the human immunodeficiency virus type 1 (HIV-1) Tat protein and the last 9 residues correspond to the last 9 amino acids of the C-terminus of human TRPM7 (accession Q96QT4). […] (A) Neuronal survival at 20 h in the indicated concentrations of Tat-9cTRPM7 in the absence of excitotoxic challenge. (B) Neuronal survival 20 h after challenging the cultures for 1 h with the indicated concentration of NMDA. Tat-9cTRPM7 was applied immediately after the NMDA challenge.
The sequence of Tat-9cTRPM7 is: [[…]-[…]; SEQ ID NO:258], whereby the first 11 residues correspond to the cell-membrane transduction domain of the human immunodeficiency virus type 1 (HIV-1) Tat protein and the last 9 residues correspond to the last 9 amino acids of the C-terminus of human TRPM7 (accession Q96QT4). (A) Neuronal survival at 20 h in the indicated concentrations of Tat-9cTRPM7 in the absence of excitotoxic challenge. (B) Neuronal survival 20 h after challenging the cultures for 1 h with the indicated concentration of NMDA. Tat-9cTRPM7 was applied immediately after the NMDA challenge.

Row | Compound | Survival of neurons in prolonged OGD [1] | Neuronal survival 20 h after challenging the cultures for 1 h with NMDA (cultured neurons)
1 | [Gd+3] [Gd^3+] | can permit survival of neurons destined to die from prolonged OGD | 
2 | YGRKKRRQRRR-STNSVRLML (YGRKKRRQRRRSTNSVRLML) [Tat-9cTRPM7, HIV-1 Tat transduction domain fused to last 9 amino acids of human TRPM7] |  | enhanced survival when challenged with NMDA
